The numbers were not newly measured in US9469654B2, “Bicyclic oxa-lactam kinase inhibitors” (PORTOLA PHARMACEUTICALS, INC., priority 2012, dated 2016), which cites them from elsewhere.

Data set [1] has as its system lymphoma cell lines and primary human lymphoma samples.
For data set [2], the system named is refractory NHL and chronic lymphocytic leukemia. Conditions: phase II clinical trial.
Data set [3] relates to JAK kinases.
The subject of data set [4] is Src kinsase.

Turning to `COc1cc(Nc2ncc(F)c(Nc3ccc4c(n3)NC(=O)C(C)(C)O4)n2)cc(OC)c1OC` [Example R406], the apoptosis result in data set [1] (lymphoma cell lines) was “resulting in apoptosis”. Besides, the “effect on BCR signaling” value in data set [1] (lymphoma cell lines and primary human lymphoma samples) is given as “attenuates BCR signaling”. The clinical outcome in data set [2] is “favorable results”. In data set [3], the “activity against JAK kinases” value was “active against”. The “activity against Src kinase” value in data set [4] was “not against”.
